# Results published in PubChem BioAssay (NCI).
#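 Test compounds were applied to cells in 96-well plates for 48 hours at 5 doses. At the GI50, growth is halved. Definition used: TGI = concentration required for complete inhibition of growth.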
# Key:
# Assay in all cases: NCI-60 cell line screen, 48 h
# SF-295 CNS = system: SF-295 CNS
# NCI-H226 lung = system: NCI-H226 lung
# CAKI-1 renal = system: CAKI-1 renal
# EKVX NSCLC = system: EKVX NSCLC
# OVCAR-8 ovarian = system: OVCAR-8 ovarian
# HL-60(TB) leukemia = system: HL-60(TB) leukemia
# NCI-H522 lung = system: NCI-H522 lung
# KM12 colon = system: KM12 colon
# COLO 205 colon = system: COLO 205 colon
# K-562 leukemia = system: K-562 leukemia
Structure (SMILES),GI50 (SF-295 CNS),TGI (SF-295 CNS),GI50 (NCI-H226 lung),TGI (NCI-H226 lung),GI50 (CAKI-1 renal),TGI (CAKI-1 renal),GI50 (EKVX NSCLC),TGI (EKVX NSCLC),GI50 (OVCAR-8 ovarian),TGI (OVCAR-8 ovarian),GI50 (HL-60(TB) leukemia),TGI (HL-60(TB) leukemia),GI50 (NCI-H522 lung),TGI (NCI-H522 lung),GI50 (KM12 colon),TGI (KM12 colon),GI50 (COLO 205 colon),TGI (COLO 205 colon),GI50 (K-562 leukemia),TGI (K-562 leukemia)
CCOP(=O)(CCP(=O)(OCC)OCC)OCC.C[CH2][Sn]([Cl])([Cl])[CH2]C,> 81.8 µM,> 100 µM,20.3 µM,42.7 µM,13.9 µM,35 µM,> 100 µM,> 100 µM,> 100 µM,> 100 µM,56.6 µM,> 95.2 µM,1.64 µM,4.97 µM,> 100 µM,> 100 µM,30.4 µM,50.9 µM,27.4 µM,> 100 µM
COc1cc2c(cc1OC)C(CCc1ccc(Cl)cc1)N(C)CC2 (centres undefined),9.32 µM,27 µM,58.6 µM,> 100 µM,10.7 µM,31.7 µM,16.7 µM,81 µM,32.6 µM,> 100 µM,17.2 µM,44.3 µM,20 µM,38.6 µM,19.5 µM,38.1 µM,17.6 µM,34.6 µM,24.7 µM,66.1 µM
OC(c1ccccc1)(c1ccccc1)c1ccccn1,,> 100 µM,,> 100 µM,,> 100 µM,,> 100 µM,,> 100 µM,,> 100 µM,,> 100 µM,,> 100 µM,,> 100 µM,,> 100 µM
Nc1nnc2nc(CC(=O)/C=C/c3ccccc3)c(=O)[nH]n12,,> 100 µM,,> 100 µM,,> 100 µM,,> 100 µM,,> 100 µM,,> 100 µM,,> 100 µM,,> 100 µM,,> 100 µM,,> 100 µM
Clc1ccc(-c2nc3c(-c4ccc(Cl)cc4)nc(-c4ccccc4)cn3c2-c2ccc(Cl)cc2)cc1,12 µM,> 50 µM,> 50 µM,> 50 µM,27.8 µM,> 50 µM,> 50 µM,> 50 µM,> 50 µM,> 50 µM,> 50 µM,> 50 µM,44.7 µM,> 50 µM,> 50 µM,> 50 µM,> 50 µM,> 50 µM,> 50 µM,> 50 µM
COC(=O)[C@]12CC[C@@H](C)[C@H](C)[C@@H]1C1=CC[C@@H]3[C@@]4(C)C[C@@H](OC(=O)c5ccco5)[C@H](O)[C@@](C)(CO)[C@@H]4[C@H](O)C[C@@]3(C)[C@]1(C)CC2,1.84 µM,3.87 µM,2.3 µM,6.05 µM,2.99 µM,10.9 µM,2.78 µM,8.67 µM,3.37 µM,10.4 µM,2.08 µM,5.46 µM,1.82 µM,3.96 µM,2.62 µM,6.77 µM,1.82 µM,3.44 µM,2.35 µM,5.42 µM
COc1ccc(/C=C2\N=C(c3ccccc3)OC2=O)c(OCc2ccccc2)c1,,38.6 µM,,> 100 µM,,> 100 µM,,> 100 µM,,72 µM,,> 100 µM,,67.2 µM,,> 100 µM,,> 100 µM,,> 100 µM
CC(=O)CC(=O)CCCC(=O)Nc1ccc(Cl)cc1C,,> 100 µM,,> 100 µM,,> 100 µM,,> 100 µM,,> 100 µM,,> 100 µM,,> 100 µM,,> 100 µM,,> 100 µM,,> 100 µM
C[N+](C)(C)CCOP(=O)(O)OP(=O)([O-])OCC1CCC(n2ccc(N)nc2=O)O1 (centres undefined),,> 100 µM,,> 100 µM,,> 100 µM,,> 100 µM,,> 100 µM,,> 100 µM,,> 100 µM,,> 100 µM,,> 100 µM,,> 100 µM
CC(=O)NNc1nc(C)c(C(=O)NNC(=O)C(=O)Nc2ccc(C)c(C)c2)s1,,> 100 µM,,> 100 µM,,> 100 µM,,> 100 µM,,> 100 µM,,> 100 µM,,46.3 µM,,> 100 µM,,> 100 µM,,> 100 µM
O=C1Cc2cc(CCn3ccnc3)c(Cl)cc2N1,7.87 µM,> 100 µM,> 100 µM,> 100 µM,6.32 µM,> 100 µM,0.613 µM,> 100 µM,24.1 µM,> 100 µM,63.2 µM,> 100 µM,4.74 µM,47.9 µM,3.58 µM,98.4 µM,15.1 µM,> 100 µM,8.26 µM,> 100 µM
CC1=C(C(=O)Nc2cccc(C(F)(F)F)c2)C(c2ccc(O)cc2)C(C(=O)Nc2cccc(C(F)(F)F)c2)=C(C)N1,,39.9 µM,,44.3 µM,,59.3 µM,,58.6 µM,,76.6 µM,,38.7 µM,,34.4 µM,,33.2 µM,,27 µM,,44.7 µM
Nc1ccc2c(c1)C(=O)c1ccc(F)cc1-2,,> 100 µM,,> 100 µM,,> 100 µM,,> 100 µM,,> 100 µM,,> 100 µM,,> 100 µM,,> 100 µM,,> 100 µM,,> 100 µM
O=C(NCCCN1CCN(CCCNC(=O)c2cnc3ccccc3n2)CC1)c1cnc2ccccc2n1,,> 100 µM,,> 100 µM,,> 100 µM,,> 100 µM,,> 100 µM,,> 100 µM,,> 100 µM,,> 100 µM,,> 100 µM,,> 100 µM
CCCOc1ccc(/C(Cl)=C(\C=O)c2ccc(OC)c(OC)c2)cc1OCCC,,88.3 µM,,32.4 µM,,> 100 µM,,50.4 µM,,> 100 µM,,20.9 µM,,6.12 µM,,34.5 µM,,14.6 µM,,> 100 µM
C/C(CN1C(=O)c2ccccc2C1=O)=N\NS(=O)(=O)c1ccccc1,,> 100 µM,,> 100 µM,,> 100 µM,,> 100 µM,,> 100 µM,,> 100 µM,,> 100 µM,,> 100 µM,,> 100 µM,,> 100 µM
COc1ccc2c(c1)C(=O)c1c-2n(CCCN=[N+]=[N-])c(=O)c2ccccc12,18.5 µM,> 100 µM,> 100 µM,> 100 µM,49.7 µM,> 100 µM,63 µM,> 100 µM,73 µM,> 100 µM,54.1 µM,> 100 µM,10.8 µM,> 100 µM,> 100 µM,> 100 µM,34.6 µM,> 100 µM,26 µM,> 100 µM
C=CCN1C(=O)/C(=c2\sc3n(c2=O)C2C(NN=3)N(CC)C(=O)N2CC)c2ccccc21 (centres undefined),0.455 µM,> 33.7 µM,2.19 µM,> 100 µM,0.474 µM,> 100 µM,1.39 µM,> 100 µM,1.12 µM,> 100 µM,0.315 µM,2.05 µM,0.379 µM,,0.439 µM,> 100 µM,0.549 µM,> 20.4 µM,0.414 µM,> 100 µM
CC1C2Cc3ccc(O)cc3C1(C)CCN2C (centres undefined),,> 100 µM,,> 100 µM,,> 100 µM,,> 100 µM,,> 100 µM,,> 100 µM,,> 100 µM,,> 100 µM,,> 100 µM,,> 100 µM
CCOc1ccc(Cc2nccc3cc(OCC)c(OCC)cc23)cc1OCC,0.688 µM,15.8 µM,6 µM,23.8 µM,4.53 µM,41 µM,3.64 µM,27.1 µM,5.33 µM,31.1 µM,3.17 µM,18.2 µM,2.09 µM,15 µM,4.85 µM,24.5 µM,4.28 µM,19 µM,3.54 µM,49.9 µM
CCN1CCC[C@H]1c1cc(O)c2c(c1OC)C[C@H]1C[C@H]3[C@H](N)C(=O)C(C(N)=O)=C(O)[C@@]3(O)C(=O)C1=C2O,0.208 µM,3.8 µM,0.216 µM,3.96 µM,0.0293 µM,0.62 µM,0.203 µM,3.54 µM,0.0587 µM,3.01 µM,0.0379 µM,0.238 µM,0.0562 µM,0.799 µM,0.0998 µM,13.2 µM,0.0583 µM,0.682 µM,0.0599 µM,> 100 µM
CCc1cccc(C(C)CC)c1N=C(NC(=O)c1ccccc1C(=O)NC(=Nc1c(CC)cccc1C(C)CC)SC)SC (centres undefined),,> 100 µM,,57.1 µM,,> 100 µM,,> 100 µM,,> 100 µM,,51.5 µM,,64.4 µM,,> 100 µM,,> 100 µM,,> 100 µM
